Reference: patent US20120058204A1, “USE OF OVER EXPRESSION OF CYSTATHIONINE GAMMA LYASE AS A PROGNOSTIC, DIAGNOSTIC AND THERAPEUTIC TARGET FOR CANCER” (NATIONAL CANCER CENTER RESEARCH INSTITUTE, priority 2010, published 2012)

What was measured:
Format in all cases: cell-based
OVTOKO cell line = experiment: Drug and growth-inhibitor assay (Cell Titer-Glo cell viability), OVTOKO; conditions: for effect on cell growth: concentration 0.1 g/ml to […], alone
Method: (§1) Cysplatin (CDDP, Randa, molecular weight, 300.5 Da) was purchased from Nippon Kayaku (Tokyo, Japan). Propargylglycine (PPG, molecular weight, 113.11 Da), a specific inhibitor of CTH, was purchased from Sigma-Aldrich. OVISE, OVTOKO, and OVCAR-3 were seeded into opaque-walled 96-well plates in a concentration of 1×10^4 cells/well on the day before adding the drugs. CDDP solution of various concentrations (0, 0.02, 0.1, 0.5, 2.5, and 12.5 µg/ml) was then added to the wells in duplicate. In the following, PPG dissolved in water ([…]) was added. 96 hours after addition of the drugs, cell viability was quantified using the Cell Titer-Glo Luminescent Cell Viability Assay (Promega, Madison, Wis.). Luminescence activity was measured with a GloMAx96 Microplate Luminometer (Promega).
(§2) The protein expression of CTH was examined in 9 ovarian cancer cell lines by western blot analysis. Among all the ovarian cell lines, CTH expression was only observed in OVISE and OVTOKO (FIG. 5E). […] There was a positive correlation between protein expression of CTH and IC50 of CDDP in ovarian cancer cell lines (FIG. 5 F-H). The IC50s of propargylglycine, a specific inhibitor of CTH, were also analyzed in these cell lines. Propargylglycine at a concentration ranging from […] to 10 µg/ml had no effect on cell growth of these cell lines. Thus, combination of CDDP and propargylglycine (FIG. 5 I-K) was also examined.

OVISE cell line = experiment: Drug and growth-inhibitor assay (Cell Titer-Glo cell viability), OVISE; conditions: for effect on cell growth: concentration 0.1 g/ml to […], alone
Method: as §1, §2

OVCAR3 cell line = experiment: Drug and growth-inhibitor assay (Cell Titer-Glo cell viability), OVCAR3; conditions: concentration 0.1 g/ml to […], alone
Method: as §1
The protein expression of CTH was examined in 9 ovarian cancer cell lines by western blot analysis. Among all the ovarian cell lines, CTH expression was only observed in OVISE and OVTOKO (FIG. 5E). […] There was a positive correlation between protein expression of CTH and IC50 of CDDP in ovarian cancer cell lines (FIG. 5 F-H). The IC50s of propargylglycine, a specific inhibitor of CTH, were also analyzed in these cell lines. Propargylglycine at a concentration ranging from […] to 10 µg/ml had no effect on cell growth of these cell lines. […]

[1] = […] propargylglycine in culture medium, versus medium without PPG

SMILES	change of IC50 of CDDP in combination with propargylglycine (OVTOKO cell line; [1])	change of IC50 of CDDP in combination with propargylglycine (OVISE cell line; [1])	effect on cell growth (OVCAR3 cell line)	effect on cell growth (OVCAR3 cell line; listed as PPG)	effect on cell growth (OVTOKO cell line)	effect on cell growth (OVTOKO cell line; listed as PPG)	effect on cell growth (OVISE cell line)	effect on cell growth (OVISE cell line; listed as PPG)
[NH2][Pt]([NH2])([Cl])[Cl] [CDDP, Cysplatin]	significantly decreased	significantly decreased						
C#CCC(N)C(=O)O (centres unmarked) [Propargylglycine]			no effect	did not affect cell growth	no effect	did not affect cell growth	no effect	did not affect cell growth
